Assay results published in patent US20110177046A1, “DITHIAZOLIDINE AND THIAZOLIDINE DERIVATIVES AS ANTICANCER AGENTS” (Betagenon AB, priority 2007, published 2011).

Assays:
[1] = tested on: MDA-MB-231 human breast cancer cell lines; assay: Test A cell proliferation assay (BrdU incorporation); type: cell-based; settings: MDA-MB-231 cells; for BrdU incorporation relative to vehicle control (1 unit): approximate
Procedure: The cell line was propagated in D-MEM (Gibco 21885) supplemented with 10% Foetal calf serum. 15000 cells per well were seeded in 96 well plates and incubated overnight. The culture media was changed to serum-free D-MEM for 24 h. […] After 18 h incubation, BrdU was added according to manufacturer's recommendations. After 6 h incubation in the presence of BrdU, the culture media was removed and BrdU incorporation was measured using “Cell Proliferation ELISA, BrdU colorimetric” Roche (11647229001) according to manufacturer's recommendations.

[2] = tested on: acetyl-CoA carboxylase (ACC); assay: Test F phosphorylation of ACC (Ser 79), Western blot in HepG2 cells; type: cell-based, human; settings: 10 μM
Procedure: (§1) The compound of Example 1 was obtained from Isosep AB, Uppsala, Sweden. A stock solution of 10 mM was prepared by dissolving the compound in 100% DMSO.
(§2) Human hepatoma HepG2 cells were purchased from American Type Culture Collection (ATCC, Manassas, USA). HepG2 cells were cultured in DMEM (Gibco 212885) containing 10% fetal bovine serum (Gibco 10500-064), 100 units/ml penicillin, 100 μg/ml streptomycin (Gibco 15140-122) and 1× non essential amino acids (Gibco 11140). The cells were incubated in a humidified atmosphere of 5% CO2 at 37° C. and passaged every 3 days by trypsinization. For experiments, HepG2 cells were incubated in complete medium with 10% fetal bovine serum in 60 or 100-mm-diameter dishes and grown to ˜70-80% confluence and subjected to assays after overnight serum depletion (16 h). After incubation in serum-free DMEM, the compound of Example 1 that was dissolved in DMSO was added to the medium.
Cells were lysed in 100 mM TRIS pH 6.8, 2% w/v Sodium dodecyl sulfate (SDS), 10 mM NaF, 10 mM β-glycerophosphate, 1 mM Na Vanadate. Protein concentration of the lysates was measured by BCA protein assay kit (Pierce #23225). […]

[3] = tested on: human primary mesangial cells; assay: Test G amelioration of TGFβ dependent collagen IV secretion (ELISA); type: cell-based; settings: 2.5 μM with TGFβ 0.5 ng/ml, 48 h, ELISA absorbance
Procedure: Human primary mesangial cells (Lonza) were seeded at a density of 57 00 cells per well in a 24 well plate in DMEM (Gibco 212885) supplemented with Non essential amino acids (Gibco 11140) Penicillin/streptomycin (Gibco 15140-122) and 10% Foetal Calf Serum (FBS) (Gibco 10500-064)
After 24 h incubation, media was changed to DMEM (Gibco 212885) supplemented with Non essential amino acids (Gibco 11140) Penicillin/streptomycin (Gibco 15140-122) and 0.5% Foetal Calf Serum (FBS)(Gibco 10500-064) as the experimental media. After 24 h incubation, media was changed to experimental media containing either vehicle or […] (0.5 ng/ml), compound of Example 1 (2.5 μM), or TGFβ (0.5 ng/ml) and compound of Example 1 (2.5 μM) in combination.
After 48 h of exposure the supernatant from each well was collected and subjected to ELISA analysis.
Using Nunc Maxisorp microtiter plates, duplicate samples of conditioned cell culture medium (diluted 1:10) was used for coating ([…], 18 h, +4° C.). […] After 3× washing in ELISA buffer, reactions were visualised using 100 μl/well TMB liquid substrate system for ELISA (Sigma) After maximum 30 min reactions were stopped by addition of 25 μl 1 M H2SO4 and immediately analysed at 450 nm using a Multiskan EX plate reader (Thermo Labsystems).

Ob/Ob mice [4] = assay: Test C insulin measurement study in diabetic Ob/Ob mice, Method (II); type: in vivo; settings: fed Ob/Ob mice, 30 mg/kg gavage twice daily for 18 days, vs vehicle
Procedure: (§3) The aim of this study was to verify the efficacy of compound of Example 1 in the diabetic ob/ob mouse with regard to correction of the metabolic disorder hyperinsulinemia. Ob/ob mice were gavaged twice daily with compound of Example 1 and the effect of the compound on levels of plasma insulin were assessed and the results were compared to a concurrent control group gavaged with vehicle.
The compound of Example 1 was obtained from Isosep AB, Uppsala, Sweden. A stock solution of 6 mg/ml was prepared by dissolving the compound in PBS, pH 7.4, 1% DMSO and 0.5% methyl cellulose.
Male B6.V-Lep^ob/JBomTac (model number OB-M) mice were bred and delivered by Taconic. Animals were housed in Umea University animal facility in transparent polycarbonate cages, with wood chip bedding at a 12 h light/darkness cycle, a temperature of […], and a relative humidity of −50% throughout the accommodation and dosing periods. 5 animals were housed in each cage with free access to standard rodent chow (CRM(E)Rodent, Special Diets Services, Scanbur BK, Sweden) and tap water. […]
(§4) In vivo potency and efficacy were determined in groups of 10 mice. […]
Plasma insulin levels were determined according to the manufacturer's recommendations with a rat insulin ELISA kit using mouse insulin standard (Crystal Chem Inc).
(§5) Data in the figures are presented as means±SEM. P values were calculated using the Student's t-test. […]

Ob/Ob mice [5] = assay: Test D blood glucose measurement study in diabetic Ob/Ob mice, Method (II); type: in vivo; settings: 30 mg/kg gavage twice daily for 18 days, vs vehicle
Procedure: as §3, with “hyperglycemia.” for “hyperinsulinemia.”, “blood glucose” for “plasma insulin”
(§6) Male B6.V-Lep^ob/JBomTac (model number OB-M) mice were bred and delivered by Taconic. Animals were housed in Umea University animal facility in transparent polycarbonate cages, with wood chip bedding at a 12 h light/darkness cycle, a temperature of ˜21° C., and a relative humidity of ˜50% throughout the accommodation and dosing periods. 5 animals were housed in each cage with free access to standard rodent chow (CRM(E)Rodent, Special Diets Services, Scanbur BK, Sweden) and tap water. All animal experiments were approved by the Local Ethics Review Committee on Animal Experiments, Umea Region.
as §4
Blood glucose levels were measured by using a Glucometer Elite (Bayer) according to the manufacturer's recommendations.
as §5

AMPK = assay: Test F activation of AMPK, Western blot of phospho-AMPKα Thr172 in HepG2 cells; type: cell-based, human; settings: 10 μM
Procedure: as §1, §2
Cells were lysed in 100 mM TRIS pH 6.8, 2% w/v Sodium dodecyl sulfate (SDS), 10 mM NaF, 10 mM β-glycerophosphate, 1 mM Na Vanadate. Protein concentration of the lysates was measured by BCA protein assay kit (Pierce #23225). 25 μg protein was loaded in each well of a 4-12% bis/tris gel for AMPK detection (Criterion precast gel Bio-Rad #345-0124) or 5% Tris-HCl gel for acetyl-CoA carboxylase (ACC) detection (Criterion Precast gel Bio-Rad #345-0002) and run according to manufacturers recommendation. Gels were blotted onto nitrocellulose filters (Hybond-C extra Amersham #RPN203E). Filters were blocked in 20 mM TRIS pH 7.5, 137 mM NaCl, […] and 5% w/v fat free powdered milk for 30 min. Filters were incubated overnight in blocking solution with phospho-AMPKαThr172, AMPKα or phospho-ACC (Ser 79) (Cell signalling #2531, #2532 and #3661). Filters were washed in 20 mM TRIS pH 7.5, 137 mM NaCl, […] for 3×5 min. Filters were incubated in blocking solution with secondary antibody, peroxidase-conjugated Goat anti rabbit IgG (Jackson immunoResearch #111-035-003) in room temperature for 1 h. Filters were washed as above for 3×10 min. […]

[6] = tested on: MDA-MB-231 human breast cancer cells xenograft tumors; assay: Test B in vivo mouse model Test 2, tumor weight; set-up: species or system Athymic BALB/cA nude mice; settings: 8 mg/kg i.p. once daily for 27 days; vehicle control approximately 225 mg
Procedure: 5 week old Athymic BALB/cA nude mice are delivered from Taconic (Denmark) and kept under barrier conditions for 1 week acclimatisation. At 6 weeks, 17 mice are injected subcutaneously on the flank with 1.8×10^6 MDA-MB-231 human breast cancer cells (LGC Promochem-ATCC) in a 50/50 v/v solution of phosphate buffered saline (PBS) (Gibco 10010-015, Invitrogen) Matrigel HC (BD Biosciences).
After 11 days, palpable tumors are observed in 16 mice. 2 mice are sacrificed and the tumors dissected and examined. 2 groups of 7 mice each are treated once daily by intraperitoneal injections of 1-10 mg/kg bodyweight of test compound in 79% PBS/20% Solutol HS 15 (BASF)/1% DMSO or vehicle control respectively for 5-30 days. The mice are sacrificed by cervical dislocation and tumors are dissected.
The above test procedure was followed, but 16 (rather than 17) mice were injected subcutaneously.
2 groups of 8 mice each were treated once daily by intraperitoneal injections of 8 mg/kg bodyweight of compound of Example 1 in 79% PBS/20% Solutol HS 15(BASF)/1% DMSO or vehicle control respectively for 27 days. Tumors were dissected and weighed at the end of the experiment.

Ob/Ob mice [7] = assay: Test E plasma triglyceride study in diabetic Ob/Ob mice, Method (II); type: in vivo; settings: fed Ob/Ob mice, 15 mg/kg gavage twice daily for 20 days, vs vehicle
Procedure: The aim of this study was to verify the efficacy of compound of Example 1 in the diabetic ob/ob mouse with regard to correction of the metabolic disorder hypertriglyceridemia. Ob/ob mice were gavaged twice daily with compound of example 1 and the effect of the compound on levels of plasma triglycerides were assessed and the results were compared to a concurrent control group gavaged with vehicle.
as §6, with “B6.V-Lep^ob/JUmeaTac” for “B6.V-Lep^ob/JBomTac”, “UMEA-M)” for “OB-M)”, “[…]” for “˜21°”, “−50%” for “˜50%”
as §4
Plasma triglycerides were determined with an enzymatic colorimetric assay (TRO100, Sigma-Aldrich) according to the manufacturer's recommendations.
as §5

For O=C1N=C(NS(=O)(=O)c2ccc(Cl)c(Cl)c2)SC1Cc1cccc(C(F)(F)F)c1 (centres unmarked) [Example 1, 5-(3-(Trifluoromethyl)benzyl)-2-(3,4-dichlorophenyl)sulfonyliminothiazolidin-4-one], the “BrdU incorporation relative to vehicle control (1 unit)” value ([1]; 0.5 μM) was about 0.95 units, the “BrdU incorporation relative to vehicle control (1 unit)” value ([1]; 1 μM) was about 1 units and the “BrdU incorporation relative to vehicle control (1 unit)” value ([1]; 5 μM) was about 0.5 units. For the same compound, the “BrdU incorporation relative to vehicle control (1 unit)” value ([1]; 10 μM) was about 0.15 units, the “Effect on proliferation rate as measured by BrdU incorporation” value [1] was “dose dependent reduction in proliferation” and the “Effect on phosphorylation of ACC” value [2] was “enhanced phosphorylation of ACC”. The “Effect on TGFβ dependent collagen IV secretion” value [3] was “ameliorate the TGFβ dependent collagen IV secretion”, the “Effect on hyperinsulinemia (plasma insulin)” value (Ob/Ob mice [4]) was “attenuates hyperinsulinemia” and the “Effect on fed blood glucose levels” value (Ob/Ob mice [5]) was “attenuated”. For the same compound, the “Effect on AMPK phosphorylation” value (AMPK) was “stimulates AMPK phosphorylation”, the “Time for AMPK phosphorylation to rise to near maximal levels” value (AMPK) was at most 1 h and the “Time for which AMPK phosphorylation was sustained” value (AMPK) was 24 h. The “Tumor weight at the end of the experiment” value [6] was “about 130 mg” and the “Effect on plasma triglycerides” value (Ob/Ob mice [7]) was “attenuated”.
